What was measured:
[1] = target: T1, RyR2-R4496C mutant HEK293 cell line (Mus musculus, UniProt E9Q401, R4495C); settings: previously reported; cited from earlier work
[2] = target: T1, RyR2-R4496C mutant HEK293 cell line

T1 sequence (E9Q401 whole entry R4495C): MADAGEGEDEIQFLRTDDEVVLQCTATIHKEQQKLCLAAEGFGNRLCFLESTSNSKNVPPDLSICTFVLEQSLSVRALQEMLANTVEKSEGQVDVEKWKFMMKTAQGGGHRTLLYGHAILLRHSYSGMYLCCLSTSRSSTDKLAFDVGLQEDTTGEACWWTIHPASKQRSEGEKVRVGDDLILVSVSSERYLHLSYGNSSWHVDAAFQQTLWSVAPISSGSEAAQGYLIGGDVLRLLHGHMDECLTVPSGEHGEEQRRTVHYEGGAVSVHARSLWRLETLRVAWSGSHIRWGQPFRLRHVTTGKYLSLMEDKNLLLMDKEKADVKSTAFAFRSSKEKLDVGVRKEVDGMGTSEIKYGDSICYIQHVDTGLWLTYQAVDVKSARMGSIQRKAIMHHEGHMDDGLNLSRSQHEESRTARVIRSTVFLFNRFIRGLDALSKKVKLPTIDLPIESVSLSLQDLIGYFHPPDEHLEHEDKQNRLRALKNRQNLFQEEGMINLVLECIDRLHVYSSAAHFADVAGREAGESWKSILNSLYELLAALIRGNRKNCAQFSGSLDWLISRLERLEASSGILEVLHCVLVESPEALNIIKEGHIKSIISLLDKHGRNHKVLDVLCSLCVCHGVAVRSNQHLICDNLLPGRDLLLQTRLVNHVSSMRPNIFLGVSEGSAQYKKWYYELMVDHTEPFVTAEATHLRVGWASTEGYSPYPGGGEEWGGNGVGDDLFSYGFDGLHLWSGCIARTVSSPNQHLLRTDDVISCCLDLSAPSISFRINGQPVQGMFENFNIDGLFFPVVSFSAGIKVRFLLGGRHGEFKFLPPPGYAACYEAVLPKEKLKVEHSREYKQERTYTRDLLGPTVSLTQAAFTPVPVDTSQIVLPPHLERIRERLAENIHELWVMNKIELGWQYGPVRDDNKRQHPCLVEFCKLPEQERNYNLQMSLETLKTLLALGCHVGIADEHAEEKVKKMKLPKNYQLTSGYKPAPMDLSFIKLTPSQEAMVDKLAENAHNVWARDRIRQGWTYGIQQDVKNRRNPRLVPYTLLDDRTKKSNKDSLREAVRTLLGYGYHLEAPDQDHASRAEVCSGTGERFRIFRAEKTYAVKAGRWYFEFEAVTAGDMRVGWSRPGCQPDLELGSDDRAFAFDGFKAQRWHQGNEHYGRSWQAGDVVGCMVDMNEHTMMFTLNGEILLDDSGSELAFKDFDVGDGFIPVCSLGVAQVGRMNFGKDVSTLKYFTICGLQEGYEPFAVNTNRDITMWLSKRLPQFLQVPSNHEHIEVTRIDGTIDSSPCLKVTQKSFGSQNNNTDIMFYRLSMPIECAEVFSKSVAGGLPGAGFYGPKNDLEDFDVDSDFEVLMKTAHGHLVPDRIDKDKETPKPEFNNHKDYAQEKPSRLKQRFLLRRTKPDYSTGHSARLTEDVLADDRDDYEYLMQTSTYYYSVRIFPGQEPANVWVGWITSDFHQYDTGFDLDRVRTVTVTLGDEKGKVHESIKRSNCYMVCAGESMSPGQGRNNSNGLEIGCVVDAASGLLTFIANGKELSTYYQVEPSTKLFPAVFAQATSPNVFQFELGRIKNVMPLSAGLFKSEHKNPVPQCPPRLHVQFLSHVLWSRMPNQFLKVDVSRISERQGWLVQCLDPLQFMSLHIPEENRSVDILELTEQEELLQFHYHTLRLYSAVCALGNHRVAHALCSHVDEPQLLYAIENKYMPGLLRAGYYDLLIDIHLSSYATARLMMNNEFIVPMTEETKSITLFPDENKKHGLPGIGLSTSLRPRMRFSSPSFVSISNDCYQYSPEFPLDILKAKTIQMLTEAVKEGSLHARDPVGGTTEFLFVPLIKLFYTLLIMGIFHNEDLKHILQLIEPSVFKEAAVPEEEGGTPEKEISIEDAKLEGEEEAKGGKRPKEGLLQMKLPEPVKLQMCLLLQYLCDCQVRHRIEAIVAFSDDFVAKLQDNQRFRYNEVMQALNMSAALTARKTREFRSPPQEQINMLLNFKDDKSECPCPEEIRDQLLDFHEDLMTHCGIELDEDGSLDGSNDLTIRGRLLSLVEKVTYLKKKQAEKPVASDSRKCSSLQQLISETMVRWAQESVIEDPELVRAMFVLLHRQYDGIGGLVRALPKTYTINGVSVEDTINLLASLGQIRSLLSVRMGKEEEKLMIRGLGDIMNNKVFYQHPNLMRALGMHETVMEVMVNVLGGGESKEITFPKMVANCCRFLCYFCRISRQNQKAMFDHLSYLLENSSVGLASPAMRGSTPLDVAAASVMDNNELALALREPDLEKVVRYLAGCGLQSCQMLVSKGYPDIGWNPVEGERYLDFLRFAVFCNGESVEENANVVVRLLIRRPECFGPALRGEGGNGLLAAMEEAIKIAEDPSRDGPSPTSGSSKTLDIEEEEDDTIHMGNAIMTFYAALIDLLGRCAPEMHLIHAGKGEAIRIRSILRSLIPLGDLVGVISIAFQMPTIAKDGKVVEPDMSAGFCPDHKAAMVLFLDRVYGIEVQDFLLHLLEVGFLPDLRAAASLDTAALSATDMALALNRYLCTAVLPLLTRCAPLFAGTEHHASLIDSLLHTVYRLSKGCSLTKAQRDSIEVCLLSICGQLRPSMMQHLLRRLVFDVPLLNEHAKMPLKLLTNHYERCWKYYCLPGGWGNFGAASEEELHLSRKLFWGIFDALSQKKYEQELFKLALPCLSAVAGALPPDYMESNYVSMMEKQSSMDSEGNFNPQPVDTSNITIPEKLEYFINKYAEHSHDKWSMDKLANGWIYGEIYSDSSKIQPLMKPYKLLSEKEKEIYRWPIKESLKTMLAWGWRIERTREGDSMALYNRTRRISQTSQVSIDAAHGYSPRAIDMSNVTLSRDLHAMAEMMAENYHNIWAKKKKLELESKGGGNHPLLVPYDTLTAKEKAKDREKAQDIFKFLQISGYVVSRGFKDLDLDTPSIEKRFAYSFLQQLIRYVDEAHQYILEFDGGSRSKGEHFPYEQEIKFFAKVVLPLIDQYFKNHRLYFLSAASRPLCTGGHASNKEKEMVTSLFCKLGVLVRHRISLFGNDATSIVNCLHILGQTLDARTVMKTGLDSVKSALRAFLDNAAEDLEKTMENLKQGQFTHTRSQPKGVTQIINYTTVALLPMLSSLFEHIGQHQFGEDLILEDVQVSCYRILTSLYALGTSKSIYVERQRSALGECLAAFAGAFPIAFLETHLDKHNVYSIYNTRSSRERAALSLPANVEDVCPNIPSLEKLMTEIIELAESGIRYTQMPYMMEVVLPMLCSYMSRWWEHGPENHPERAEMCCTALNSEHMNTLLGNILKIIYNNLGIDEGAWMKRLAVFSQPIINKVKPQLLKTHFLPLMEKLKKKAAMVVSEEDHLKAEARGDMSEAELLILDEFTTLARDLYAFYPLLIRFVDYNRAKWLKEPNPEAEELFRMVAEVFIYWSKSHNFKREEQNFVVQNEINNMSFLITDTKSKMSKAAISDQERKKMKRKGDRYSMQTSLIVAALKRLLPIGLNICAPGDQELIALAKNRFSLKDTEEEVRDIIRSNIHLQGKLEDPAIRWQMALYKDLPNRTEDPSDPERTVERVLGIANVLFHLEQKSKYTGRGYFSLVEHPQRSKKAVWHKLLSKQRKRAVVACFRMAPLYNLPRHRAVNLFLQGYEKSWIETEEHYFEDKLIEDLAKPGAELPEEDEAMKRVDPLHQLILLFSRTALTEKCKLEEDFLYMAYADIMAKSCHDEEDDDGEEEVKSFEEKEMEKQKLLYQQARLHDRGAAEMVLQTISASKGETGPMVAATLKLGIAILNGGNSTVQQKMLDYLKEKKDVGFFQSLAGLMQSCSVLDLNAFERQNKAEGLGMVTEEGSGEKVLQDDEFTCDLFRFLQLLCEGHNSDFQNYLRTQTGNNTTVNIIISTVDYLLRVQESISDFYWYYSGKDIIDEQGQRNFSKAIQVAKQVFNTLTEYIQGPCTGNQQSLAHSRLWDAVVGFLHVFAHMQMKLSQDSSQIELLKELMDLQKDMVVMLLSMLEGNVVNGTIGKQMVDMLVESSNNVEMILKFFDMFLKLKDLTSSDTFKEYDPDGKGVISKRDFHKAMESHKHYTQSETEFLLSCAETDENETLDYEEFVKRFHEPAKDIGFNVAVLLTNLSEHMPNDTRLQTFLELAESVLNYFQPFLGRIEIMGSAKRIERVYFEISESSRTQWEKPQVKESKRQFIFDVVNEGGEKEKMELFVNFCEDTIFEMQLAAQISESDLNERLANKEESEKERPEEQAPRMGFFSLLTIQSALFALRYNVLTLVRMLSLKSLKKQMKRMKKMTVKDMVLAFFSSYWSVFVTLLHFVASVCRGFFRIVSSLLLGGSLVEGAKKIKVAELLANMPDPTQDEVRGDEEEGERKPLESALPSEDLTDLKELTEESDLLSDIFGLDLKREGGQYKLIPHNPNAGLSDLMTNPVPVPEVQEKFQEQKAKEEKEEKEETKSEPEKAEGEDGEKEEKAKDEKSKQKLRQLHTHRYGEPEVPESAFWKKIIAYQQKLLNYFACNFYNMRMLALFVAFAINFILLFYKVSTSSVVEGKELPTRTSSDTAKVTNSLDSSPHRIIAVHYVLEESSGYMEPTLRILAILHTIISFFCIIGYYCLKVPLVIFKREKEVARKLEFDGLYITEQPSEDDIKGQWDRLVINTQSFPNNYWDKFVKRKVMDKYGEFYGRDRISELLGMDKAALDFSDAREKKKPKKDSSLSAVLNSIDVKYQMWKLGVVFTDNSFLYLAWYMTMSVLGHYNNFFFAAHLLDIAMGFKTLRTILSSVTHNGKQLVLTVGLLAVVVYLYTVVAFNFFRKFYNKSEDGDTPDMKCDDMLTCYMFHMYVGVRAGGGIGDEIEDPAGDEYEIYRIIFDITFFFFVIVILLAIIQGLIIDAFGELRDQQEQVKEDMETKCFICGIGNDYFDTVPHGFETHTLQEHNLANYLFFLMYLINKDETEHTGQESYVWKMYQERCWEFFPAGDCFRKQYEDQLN

COc1ccccc1OCCNCC(O)COc1cccc2[nH]c3ccccc3c12 (stereo not drawn) [carvedilol 1, carvedilol]
ability to inhibit SOICR [1]: ca. 10 μmolar

COc1ccccc1OCCN1CCC(COc2cccc3[nH]c4ccccc4c23)OCC1=O (stereo not drawn) [compound 35, 7-[(9H-carbazol-4-yloxy)methyl]-4-[2-(2-methoxyphenoxy)ethyl]-1,4-oxazepan-3-one]
decrease of SOICR-inhibiting activity on lactamization of 34 ([2]; relative to 34): more than 6 fold

COc1ccccc1OCCNCC(O)COc1ccc2c(c1)Nc1ccccc1S2(=O)=O (stereo not drawn) [compound 67, 2-(2-Hydroxy-3-{[2-(2-methoxyphenoxy)ethyl]amino}propoxy)-10H-5λ6,10-phenothiazine-5,5-dione]
decrease of SOICR-inhibiting activity on oxidation of 66 to the sulfone ([2]; relative to 66): more than 10 fold

From paper PMC3896386 (Journal of medicinal chemistry, 2013)
